# From ChEMBL document CHEMBL4800722, “Data for DCP probe BI 605906” (2021)
# The source made the active and inactive calls. The calls are words filed in the database; no cut-off is given here.
# How the values were obtained:
# [1] = target: Calcium/calmodulin-dependent protein kinase type II subunit gamma (Homo sapiens) (UniProt Q13555); details: Compound concentration 1.0 uM
# [2] = target: 3-phosphoinositide-dependent protein kinase 1 (Homo sapiens) (UniProt O15530); details: Compound concentration 1.0 uM
# [3] = target: Mitogen-activated protein kinase 13 (Homo sapiens) (UniProt O15264); details: Compound concentration 1.0 uM
# [4] = target: Nitric oxide synthase, inducible (Mus musculus) (UniProt P29477); details: Compound concentration 10.0 uM
# [5] = target: MAP kinase-interacting serine/threonine-protein kinase 1 (Homo sapiens) (UniProt Q9BUB5); assay: MKNK1 Invitrogen Lab (UK) kinase screen (BI); details: Compound concentration 1.0 uM
# [6] = target: D(2) dopamine receptor (Homo sapiens) (UniProt P14416); details: Compound concentration 10.0 uM
# [7] = target: Protein kinase C theta type (Homo sapiens) (UniProt Q04759); details: Compound concentration 1.0 uM
# [8] = target: Dual specificity mitogen-activated protein kinase kinase 5 (Homo sapiens) (UniProt Q13163); assay: MAP2K5 Invitrogen Lab (UK) kinase screen (BI); details: Compound concentration 1.0 uM
# [9] = target: cAMP-dependent protein kinase (PKA) (Homo sapiens) (UniProt P22694+P17612+P22612); assay: PKA(REC) DUNDEE kinase screen (BI); format: protein assay; details: Compound concentration 10.0 uM
# [10] = target: Polyunsaturated fatty acid 5-lipoxygenase (Homo sapiens) (UniProt P09917); assay: 5LO Eurofins SafetyScreen44 (BI); details: Compound concentration 10.0 uM
# [11] = target: Voltage-dependent L-type calcium channel subunit alpha-1C (CA+/DHPSI/RA) (Rattus norvegicus, UniProt P22002); assay: CA+/DHPSI/RA Eurofins SafetyScreen44 (BI); details: read-out: % Ctrl
# [12] = target: Tyrosine-protein kinase ITK/TSK (Homo sapiens) (UniProt Q08881); assay: ITK Invitrogen Lab (UK) kinase screen (BI); details: Compound concentration 1.0 uM
# [13] = target: Serine/threonine-protein kinase BRSK2 (Homo sapiens) (UniProt Q8IWQ3); assay: BRSK2 Invitrogen Lab (UK) kinase screen (BI); details: Compound concentration 1.0 uM
# [14] = target: Serine/threonine-protein kinase PAK 1 (Homo sapiens) (UniProt Q13153); details: Compound concentration 1.0 uM
# [15] = target: Mitogen-activated protein kinase 10 (Homo sapiens) (UniProt P53779); assay: JNK3 ALPHA 1 DUNDEE kinase screen (BI); details: Compound concentration 10.0 uM
# [16] = target: Serotonin 3 (5-HT3) receptor (Homo sapiens) (UniProt P46098+A5X5Y0+O95264+Q70Z44+Q8WXA8); assay: 5HT3/HU Eurofins SafetyScreen44 (BI); format: protein-complex assay; details: Compound concentration 10.0 uM
# [17] = target: Mitogen-activated protein kinase kinase kinase 19 (Homo sapiens) (UniProt Q56UN5); details: Compound concentration 1.0 uM
# [18] = target: Receptor-interacting serine/threonine-protein kinase 2 (Homo sapiens) (UniProt O43353); details: Compound concentration 1.0 uM
# [19] = target: Dual specificity mitogen-activated protein kinase kinase 6 (Homo sapiens) (UniProt P52564); assay: MAP2K6 Invitrogen Lab (UK) kinase screen (BI); details: Compound concentration 1.0 uM
# [20] = target: Rho-associated protein kinase 1 (Homo sapiens) (UniProt Q13464); assay: ROCK1 Invitrogen Lab (UK) kinase screen (BI)
# [21] = target: Amine oxidase [flavin-containing] A (MAOA) (Homo sapiens, UniProt P21397); assay: MAOA Eurofins SafetyScreen44 (BI); parameters: mode of action inhibitor; details: compound concentration 10 uM, read-out: % Ctrl
# [22] = target: Muscle, skeletal receptor tyrosine-protein kinase (Homo sapiens) (UniProt O15146); assay: MUSK Invitrogen Lab (UK) kinase screen (BI); details: Compound concentration 1.0 uM
# [23] = target: Interleukin-1 receptor-associated kinase 3 (Homo sapiens, UniProt Q9Y616); assay: Dose response measurement (IRAK3)
# [24] = target: CDC7/DBF4 (Cell division cycle 7-related protein kinase/Activator of S phase kinase) (Homo sapiens) (UniProt Q9UBU7+O00311); assay: CDC7/DBF4 Invitrogen Lab (UK) kinase screen (BI); format: protein-complex assay; details: Compound concentration 1.0 uM
# [25] = target: Activin receptor type-2A (Homo sapiens) (UniProt P27037); details: Compound concentration 1.0 uM
# [26] = target: Cyclin-dependent kinase 5/CDK5 activator 1 (Homo sapiens) (UniProt Q00535+Q15078); details: Compound concentration 1.0 uM
# [27] = target: Phosphatidylinositol 3-kinase catalytic subunit type 3 (Homo sapiens) (UniProt Q8NEB9); details: Compound concentration 1.0 uM
# [28] = target: Natriuretic peptides A (Cavia porcellus) (UniProt P27596); details: Compound concentration 100.0 uM
# Homo sapiens = species: Homo sapiens; assay: PKBDPH (PKB delta PH) DUNDEE kinase screen (BI); details: Compound concentration 10.0 uM
# [29] = target: Serine/threonine-protein kinase pim-2 (Homo sapiens) (UniProt Q9P1W9); details: Compound concentration 10.0 uM
# [30] = target: Hormonally up-regulated neu tumor-associated kinase (Homo sapiens) (UniProt P57058); details: Compound concentration 1.0 uM
# [31] = target: RAC-alpha serine/threonine-protein kinase (Homo sapiens) (UniProt P31749)
# [32] = target: Serine/threonine-protein kinase Nek4 (Homo sapiens) (UniProt P51957); details: Compound concentration 1.0 uM
# [33] = target: Tyrosine-protein kinase FRK (Homo sapiens) (UniProt P42685); details: Compound concentration 1.0 uM
# [34] = target: Alpha-1B adrenergic receptor (Homo sapiens) (UniProt P35368); details: Compound concentration 10.0 uM
# [35] = target: Eukaryotic elongation factor 2 kinase (Homo sapiens) (UniProt O00418); assay: EF2K DUNDEE kinase screen (BI); details: filed as activator, Compound concentration 10.0 uM
# [36] = target: Inhibitor of nuclear factor kappa-B kinase subunit beta (Homo sapiens, UniProt O14920); assay: Biochemical assay
# [37] = target: Sigma non-opioid intracellular receptor 1 (Homo sapiens) (UniProt Q99720); details: Compound concentration 10.0 uM
# [38] = target: Ribosomal protein S6 kinase alpha-1 (Homo sapiens) (UniProt Q15418); details: Compound concentration 1.0 uM
# [39] = target: Serine/threonine-protein kinase pim-3 (Homo sapiens) (UniProt Q86V86); assay: PIM3 Invitrogen Lab (UK) kinase screen (BI); details: Compound concentration 1.0 uM
# [40] = target: Serine/threonine-protein kinase PLK2 (Homo sapiens) (UniProt Q9NYY3); details: Compound concentration 1.0 uM
# Voltage-dependent L-type calcium channel subunit alpha-1C (CA+/DHPSI/RA), sequence (P22002 whole entry): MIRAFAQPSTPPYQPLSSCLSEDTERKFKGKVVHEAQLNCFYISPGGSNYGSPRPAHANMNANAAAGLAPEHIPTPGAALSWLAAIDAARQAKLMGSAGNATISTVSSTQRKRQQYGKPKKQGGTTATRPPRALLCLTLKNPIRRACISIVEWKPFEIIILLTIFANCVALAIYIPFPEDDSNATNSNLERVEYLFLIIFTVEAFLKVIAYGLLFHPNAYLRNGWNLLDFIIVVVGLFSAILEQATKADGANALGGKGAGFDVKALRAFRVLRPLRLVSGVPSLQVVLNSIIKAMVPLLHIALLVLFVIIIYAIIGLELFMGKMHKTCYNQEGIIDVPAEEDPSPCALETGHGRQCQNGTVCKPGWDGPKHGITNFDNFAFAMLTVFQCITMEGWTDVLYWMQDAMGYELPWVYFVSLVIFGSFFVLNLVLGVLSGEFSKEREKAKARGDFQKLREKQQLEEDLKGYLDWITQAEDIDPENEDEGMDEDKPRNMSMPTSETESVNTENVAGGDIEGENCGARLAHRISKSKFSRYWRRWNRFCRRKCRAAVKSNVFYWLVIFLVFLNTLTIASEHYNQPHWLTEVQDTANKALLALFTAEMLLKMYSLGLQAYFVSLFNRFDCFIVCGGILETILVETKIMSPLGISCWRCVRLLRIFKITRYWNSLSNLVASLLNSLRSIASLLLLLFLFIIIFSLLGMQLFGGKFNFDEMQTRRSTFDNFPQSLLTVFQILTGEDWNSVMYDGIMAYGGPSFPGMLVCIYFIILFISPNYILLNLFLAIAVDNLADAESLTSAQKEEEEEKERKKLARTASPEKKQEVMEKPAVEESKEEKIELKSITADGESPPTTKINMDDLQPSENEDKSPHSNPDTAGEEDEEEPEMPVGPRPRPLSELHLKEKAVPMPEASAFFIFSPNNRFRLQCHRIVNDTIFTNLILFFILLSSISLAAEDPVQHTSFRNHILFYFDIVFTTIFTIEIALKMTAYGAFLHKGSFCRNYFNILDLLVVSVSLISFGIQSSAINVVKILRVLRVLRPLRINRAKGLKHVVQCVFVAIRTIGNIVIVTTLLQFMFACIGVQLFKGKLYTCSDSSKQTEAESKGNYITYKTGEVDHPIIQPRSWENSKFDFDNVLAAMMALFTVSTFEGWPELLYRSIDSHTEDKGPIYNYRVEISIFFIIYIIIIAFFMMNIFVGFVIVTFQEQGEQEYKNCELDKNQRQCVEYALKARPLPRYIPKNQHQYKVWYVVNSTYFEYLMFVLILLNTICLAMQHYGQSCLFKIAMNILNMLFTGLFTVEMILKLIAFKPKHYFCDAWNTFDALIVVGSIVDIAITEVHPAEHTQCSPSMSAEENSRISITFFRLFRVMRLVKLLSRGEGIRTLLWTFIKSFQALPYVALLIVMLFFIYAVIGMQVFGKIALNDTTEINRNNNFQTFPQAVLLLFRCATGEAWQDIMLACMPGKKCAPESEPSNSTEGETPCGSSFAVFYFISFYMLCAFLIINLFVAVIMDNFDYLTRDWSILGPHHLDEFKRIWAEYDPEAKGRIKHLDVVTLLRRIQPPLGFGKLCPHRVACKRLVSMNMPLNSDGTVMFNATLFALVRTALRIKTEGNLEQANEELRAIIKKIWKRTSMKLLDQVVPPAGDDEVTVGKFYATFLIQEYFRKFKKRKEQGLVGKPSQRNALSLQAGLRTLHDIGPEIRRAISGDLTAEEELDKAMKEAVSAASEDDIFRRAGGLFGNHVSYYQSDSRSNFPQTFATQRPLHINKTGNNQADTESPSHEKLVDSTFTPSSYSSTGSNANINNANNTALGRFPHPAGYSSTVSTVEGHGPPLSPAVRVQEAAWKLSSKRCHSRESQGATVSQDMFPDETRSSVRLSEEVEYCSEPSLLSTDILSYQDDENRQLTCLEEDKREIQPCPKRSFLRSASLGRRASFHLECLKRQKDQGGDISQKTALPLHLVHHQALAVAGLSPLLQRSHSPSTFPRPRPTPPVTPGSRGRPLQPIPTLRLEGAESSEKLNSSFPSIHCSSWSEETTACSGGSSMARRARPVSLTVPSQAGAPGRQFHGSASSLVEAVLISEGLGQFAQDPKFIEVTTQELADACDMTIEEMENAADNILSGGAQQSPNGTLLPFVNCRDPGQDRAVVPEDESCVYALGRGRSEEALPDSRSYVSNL
# Rho-associated protein kinase 1 (Homo sapiens), sequence (Q13464 2-1354 limits assumed): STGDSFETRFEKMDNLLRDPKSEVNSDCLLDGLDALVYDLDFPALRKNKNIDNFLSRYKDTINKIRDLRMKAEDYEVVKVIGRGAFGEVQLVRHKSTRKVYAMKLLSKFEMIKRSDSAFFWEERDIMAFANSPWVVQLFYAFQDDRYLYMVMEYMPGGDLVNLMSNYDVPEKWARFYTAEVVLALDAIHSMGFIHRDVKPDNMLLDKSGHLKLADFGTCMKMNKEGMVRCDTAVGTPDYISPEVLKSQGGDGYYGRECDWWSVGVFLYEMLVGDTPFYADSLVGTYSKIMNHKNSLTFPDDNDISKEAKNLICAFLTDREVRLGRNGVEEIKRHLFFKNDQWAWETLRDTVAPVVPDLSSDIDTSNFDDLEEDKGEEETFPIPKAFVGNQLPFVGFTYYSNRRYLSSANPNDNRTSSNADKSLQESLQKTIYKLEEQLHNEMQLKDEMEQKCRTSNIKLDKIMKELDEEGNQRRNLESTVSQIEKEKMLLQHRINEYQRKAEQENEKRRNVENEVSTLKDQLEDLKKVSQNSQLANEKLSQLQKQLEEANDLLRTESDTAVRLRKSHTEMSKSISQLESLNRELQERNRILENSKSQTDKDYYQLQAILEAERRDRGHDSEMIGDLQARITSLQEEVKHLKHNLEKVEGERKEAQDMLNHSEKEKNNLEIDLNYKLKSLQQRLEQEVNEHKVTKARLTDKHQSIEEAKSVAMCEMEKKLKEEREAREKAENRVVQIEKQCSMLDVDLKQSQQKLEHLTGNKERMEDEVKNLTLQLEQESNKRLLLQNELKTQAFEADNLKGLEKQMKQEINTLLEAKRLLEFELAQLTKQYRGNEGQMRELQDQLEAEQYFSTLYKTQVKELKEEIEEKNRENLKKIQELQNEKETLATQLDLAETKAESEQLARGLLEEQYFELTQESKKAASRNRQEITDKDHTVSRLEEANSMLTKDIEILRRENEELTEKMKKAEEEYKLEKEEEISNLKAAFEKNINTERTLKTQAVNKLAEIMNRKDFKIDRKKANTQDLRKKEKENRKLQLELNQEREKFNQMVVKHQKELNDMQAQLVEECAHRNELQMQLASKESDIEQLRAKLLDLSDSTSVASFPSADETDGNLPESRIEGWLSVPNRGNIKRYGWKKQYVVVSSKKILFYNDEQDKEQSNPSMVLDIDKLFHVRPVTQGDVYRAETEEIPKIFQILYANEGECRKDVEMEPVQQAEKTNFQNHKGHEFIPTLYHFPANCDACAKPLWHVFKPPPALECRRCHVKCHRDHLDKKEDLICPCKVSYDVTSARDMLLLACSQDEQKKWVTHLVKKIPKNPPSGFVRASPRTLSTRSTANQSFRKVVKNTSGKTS
# RAC-alpha serine/threonine-protein kinase (Homo sapiens), sequence (P31749 whole entry): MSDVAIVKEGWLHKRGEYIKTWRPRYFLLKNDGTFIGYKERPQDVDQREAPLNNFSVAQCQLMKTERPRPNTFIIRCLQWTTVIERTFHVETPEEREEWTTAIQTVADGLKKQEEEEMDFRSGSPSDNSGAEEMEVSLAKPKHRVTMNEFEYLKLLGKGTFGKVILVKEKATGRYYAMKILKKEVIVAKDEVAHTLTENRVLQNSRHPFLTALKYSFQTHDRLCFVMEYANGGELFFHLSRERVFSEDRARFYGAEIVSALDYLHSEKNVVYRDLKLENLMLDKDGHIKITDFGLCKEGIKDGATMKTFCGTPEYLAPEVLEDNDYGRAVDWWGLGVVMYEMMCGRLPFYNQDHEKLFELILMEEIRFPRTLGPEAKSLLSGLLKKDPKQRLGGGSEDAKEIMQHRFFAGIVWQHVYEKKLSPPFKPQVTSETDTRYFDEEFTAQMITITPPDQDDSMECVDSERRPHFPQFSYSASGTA
# Phosphatidylinositol 3-kinase catalytic subunit type 3 (Homo sapiens), sequence (Q8NEB9 whole entry): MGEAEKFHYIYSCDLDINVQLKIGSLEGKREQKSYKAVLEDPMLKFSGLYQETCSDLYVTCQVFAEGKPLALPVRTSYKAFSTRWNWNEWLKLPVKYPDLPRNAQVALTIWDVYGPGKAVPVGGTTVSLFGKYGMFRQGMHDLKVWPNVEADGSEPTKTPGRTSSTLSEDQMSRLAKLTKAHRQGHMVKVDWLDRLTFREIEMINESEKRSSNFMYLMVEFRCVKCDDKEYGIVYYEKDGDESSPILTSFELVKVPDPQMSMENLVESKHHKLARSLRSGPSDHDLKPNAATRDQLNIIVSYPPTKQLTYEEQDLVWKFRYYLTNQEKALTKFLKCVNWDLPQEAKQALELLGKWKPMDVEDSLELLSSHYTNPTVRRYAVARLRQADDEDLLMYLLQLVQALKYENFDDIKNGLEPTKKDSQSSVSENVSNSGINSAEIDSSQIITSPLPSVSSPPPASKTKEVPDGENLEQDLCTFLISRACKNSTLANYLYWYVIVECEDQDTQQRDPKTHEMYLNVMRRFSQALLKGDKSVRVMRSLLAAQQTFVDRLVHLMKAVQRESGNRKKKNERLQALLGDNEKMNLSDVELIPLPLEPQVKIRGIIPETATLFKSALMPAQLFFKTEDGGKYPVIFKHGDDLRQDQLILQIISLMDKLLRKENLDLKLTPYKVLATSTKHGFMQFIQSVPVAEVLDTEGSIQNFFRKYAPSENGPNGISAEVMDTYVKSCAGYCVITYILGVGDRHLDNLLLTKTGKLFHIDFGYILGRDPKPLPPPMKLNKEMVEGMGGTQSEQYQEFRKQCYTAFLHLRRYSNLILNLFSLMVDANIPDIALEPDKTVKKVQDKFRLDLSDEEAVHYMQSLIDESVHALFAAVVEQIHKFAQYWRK
# Sigma non-opioid intracellular receptor 1 (Homo sapiens), sequence (Q99720 whole entry): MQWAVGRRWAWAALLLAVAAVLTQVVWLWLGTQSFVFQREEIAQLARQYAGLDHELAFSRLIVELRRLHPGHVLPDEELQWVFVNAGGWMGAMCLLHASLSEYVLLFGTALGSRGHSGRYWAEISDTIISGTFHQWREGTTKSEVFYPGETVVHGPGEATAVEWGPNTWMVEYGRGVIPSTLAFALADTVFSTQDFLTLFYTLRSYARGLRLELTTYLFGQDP
compound,measurement,setting,value
CCC(F)(F)c1cc(N2CCC(S(C)(=O)=O)CC2)nc2sc(C(N)=O)c(N)c12 [BI-605906],residual activity,[1],90%
same,residual activity,[2],82%
same,residual activity,[3],94%
same,residual activity,[4],108%
same,residual activity,[5],107%
same,inhibition,[6],69.8%
same,residual activity,[7],101%
same,residual activity,[8],107%
same,residual activity,[9],61.7%
same,residual activity,[10],53%
same,activity at 1 µM,[11]; compound concentration 1 uM,104% (not active)
same,activity at 3 µM,[11]; compound concentration 3 uM,94% (not active)
same,activity at 10 µM,[11]; compound concentration 10 uM,91% (not active)
same,activity at 30 µM,[11]; compound concentration 30 uM,77% (not active)
same,activity at 100 µM,[11]; compound concentration 100 uM,41.5%
same,residual activity,[12],107%
same,residual activity,[13],102%
same,residual activity,[14],98%
same,residual activity,[15],72.4%
same,residual activity,[16],84%
same,residual activity,[17],98%
same,residual activity,[18],94%
same,residual activity,[19],75%
same,residual activity,[20]; Compound concentration 1.0 uM,88%
same,residual activity,[20]; Compound concentration 10.0 uM,47%
same,activity at 10 µM,[21],68% (not active)
same,residual activity,[22],84%
same,IC50,[23],0.921 µM (not active)
same,residual activity,[24],88%
same,residual activity,[25],108%
same,residual activity,[26],99%
same,residual activity,[27],91%
same,residual activity,[28],100%
same,residual activity,Homo sapiens,75.6%
same,residual activity,[29],101%
same,residual activity,[30],97%
same,residual activity,[31]; Compound concentration 1.0 uM,99%
same,residual activity,[31]; Compound concentration 10.0 uM,96%
same,residual activity,[32],89%
same,residual activity,[33],92%
same,inhibition,[34],-0.02%
same,residual activity,[35],66.2%
same,IC50,[36],0.049 µM (active)
same,inhibition,[37],8.89%
same,residual activity,[38],94%
same,residual activity,[39],103%
same,residual activity,[40],96%
